Values quoted from earlier work, collected in US12151062B2, “Compositions and devices to administer pharmaceutical compositions nasally” (BOARD OF REGENTS, THE UNIVERSITY OF TEXAS SYSTEM, priority 2016, dated 2024).
Like-named read-outs stand apart in the source and are kept apart here.

Legend:
[1] = for DTE relative to nasal solution alone: mucoadhesive microemulsion i.n.
[2] = PLGA nanoparticles
[3] = not given; remark: listed apart in the source
[4] = not given; remark: listed apart in the source
[5] = mice
brain tumor = conditions: mucoadhesive solution i.n.; rats pre-dosed with acetazolamide
[6] = thermoreversible gel with chitosan and glycerophosphate
[7] = system: P3 component of the event-related potentials; conditions: human subjects
[8] = thermosensitive gel i.n. compared to nasal solution in normal saline; rabbits
[9] = nasal administration with vasoconstrictor phenylephrine

**Q.** With `CN(C)CCc1c[nH]c2ccc(C[C@H]3COC(=O)N3)cc12` [Zolmitriptan] as the molecule, how does the “brain concentrations 30 minutes after administration” value ([1]; micellar formulation i.n., rats) read?
**A.** about fivefold higher

**Q.** And the “brain concentrations, 30 min up to 120 min” value ([1]; micellar nanocarrier i.n., rats)?
**A.** significantly higher brain concentrations up to 120 minutes

**Q.** Which results are given for L-Tyr-D Arg?
**A.** amount delivered to the olfactory bulb [9]: significantly increased; amount in the trigeminal nerve [9]: decreased amount; amount of drug absorbed into the systemic circulation [9]: significantly decreased; decrease in whole brain concentrations [9]: about 50%

**Q.** Which “midbrain concentrations compared to acidic solution” value ([1]; rat, in vivo) does the source give for GDF-5: growth differentiation factor 5 here?
**A.** Significantly higher midbrain concentrations compared to acidic solution

**Q.** For `CCCN(CCC)CCc1cccc2c1CC(=O)N2` [Ropinirole], which DTE ([1]; temperature sensitive in situ gel with chitosan and HPMC i.n., rats) is on record?
**A.** DTE-10.4

**Q.** Which “diffusion through sheep nasal mucosa, ex vivo” value [2] does the source give for `Cc1cc2c(s1)Nc1ccccc1N=C2N1CCN(C)CC1` [Olanzapine] here?
**A.** slower

**Q.** And the DTE ([1]; i.n. solution, rats)?
**A.** to 550%

**Q.** And the DTE ([1]; mucoadhesive nanoemulsion i.n., rats)?
**A.** DTE-890%

**Q.** And the DTE ([1]; nanomicellar carrier i.n., rats)?
**A.** 520.26%

**Q.** With `NC(=O)N1c2ccccc2C=Cc2ccccc21` [Carbamazepine] as the molecule, how does the DTE ([3]; thermoreversible gel i.n., mice) read?
**A.** DTE - 0.98

**Q.** And the “brain levels in the intranasal group” value ([1]; even at early time points, vs intravenous solution)?
**A.** unable to detect significantly higher brain levels

**Q.** And the “brain AUC-to-plasma AUC ratio compared to intravenous therapy” value ([1]; hypromellose and Carbopol 974P gel i.n.)?
**A.** 4.31 times

**Q.** And the systemic bioavailability ([1]; intranasal formulation compared to intravenous carbamazepine solution)?
**A.** 100%

**Q.** Which “brain concentrations compared to unmodified PEG-PLA nanoparticles i.n.” value (wheat germ agglutinin conjugated PEG-PLA nanoparticles i.n.) does the source give for `O=c1ccc2ccccc2o1` [coumarin] here?
**A.** two-fold increase

**Q.** For `COCCOC(=O)C1=C(C)NC(C)=C(C(=O)OC(C)C)C1c1cccc([N+](=O)[O-])c1` (stereo not drawn) [Nimodipine], which “AUC in olfactory bulb after i.n. compared with i.v. treatment” value ([1]; microemulsion, rats) is on record?
**A.** Higher AUC

**Q.** What about the “AUC in rest of brain after i.n. compared with i.v. treatment” value ([1]; microemulsion, rats) of the same molecule?
**A.** lower AUC

**Q.** With `COc1cc(/C=C/C(=O)CC(=O)/C=C/c2ccc(O)c(OC)c2)ccc1O` [Curcumin] as the molecule, how does the “brain AUC compared to curcumin injection” value ([1]; in situ gelling microemulsion i.n.) read?
**A.** three times

**Q.** For `NCCc1ccc(O)c(O)c1` [dopamine], which “brain concentrations compared to nerve growth factor dosed at the same concentration” value ([1]; intranasal) is on record?
**A.** fivefold higher

**Q.** What does the source list for `CNCC[C@H](Oc1cccc2ccccc12)c1cccs1` [Duloxetine]?
**A.** brain concentrations compared to intravenous administration of duloxetine solution ([1]; lipid nanocarrier i.n.): about eight times higher; DTE ([1]; lipid nanocarrier i.n., rats): 757.14%; DTE ([1]; lipid nanocarrier i.n., rats, listed as duloxetine): 757.14%; DTE ([1]; solution i.n., rats): to 287.34%; DTE ([1]; solution i.n., rats, listed as duloxetine): 287.34%

**Q.** Which “log P” value [4] does the source give for `Cc1nc2ccc(CN(C)c3ccc(C(=O)N[C@@H](CCC(=O)O)C(=O)O)s3)cc2c(=O)[nH]1` [Raltitrexed] here?
**A.** −0.98

**Q.** What about the “increase in the AUC after intranasal use compared to intravenous use” value ([1]; depending on the section of brain, rats) of the same molecule?
**A.** 54-121 fold

**Q.** And the “DTE for Cerebrum” value ([1]; solution (PBS pH 8) i.n., rats)?
**A.** 120

**Q.** What about the “DTE for Olfactory Bulb” value ([1]; solution (PBS pH 8) i.n., rats) of the same molecule?
**A.** 127

**Q.** For `C[C@]12CC[C@@H]3c4ccc(O)cc4CC[C@H]3[C@@H]1CC[C@@H]2O` [Estradiol], which AUCCSF/AUCplasma ([1]; cyclodextrin formulation i.n., rats) is on record?
**A.** 1.60

**Q.** What about the AUCCSF/AUCplasma ([1]; i.v., rats) of the same molecule?
**A.** 0.61 from

**Q.** Which results are given for `Cc1nc2n(c(=O)c1CCN1CCC(c3noc4cc(F)ccc34)CC1)CCCC2` [Risperidone]?
**A.** plasma AUC after intranasal administration vs intravenous ([3]; SLNs): lower; locomotor activity ([5]; any of the tested formulations): significantly reduced; locomotor activity compared to nanoemulsion given intravenously ([5]; nanoemulsion and mucoadhesive nanoemulsion given intranasally): significant reduction

**Q.** What does the source list for `CC(C)C[C@H]1C(=O)N2CCC[C@H]2[C@]2(O)O[C@](NC(=O)[C@@H]3C=C4c5cccc6[nH]c(Br)c(c56)C[C@H]4N(C)C3)(C(C)C)C(=O)N12` [Bromocriptine]?
**A.** brain AUCs compared to intravenous administration of the nanoparticles ([3]; mouse, in vivo): over two-fold greater; brain and plasma AUC values ([3]; mouse, in vivo): higher

**Q.** Which “reduction in brain tumor weight” value (brain tumor) does the source give for `CN(Cc1cnc2nc(N)nc(N)c2n1)c1ccc(C(=O)N[C@@H](CCC(=O)O)C(=O)O)cc1` [Methotrexate] here?
**A.** 75%

**Q.** What about the “increase in uptake compared to i.n. without acetazolamide” value ([1]; mucoadhesive solution i.n., rats pre-dosed with acetazolamide) of the same molecule?
**A.** 195%

**Q.** And the “CSF AUC after nasal administration compared to intravenous administration” value ([1]; rat, in vivo, iv)?
**A.** greater than 13 fold

**Q.** And the DTE ([1]; solution i.n., rats)?
**A.** DTE- 21.7%

**Q.** For `CN(C)CCC=C1c2ccccc2COc2ccccc21` [Doxepin], which “duration of immobility, forced swim test” value [6] is on record?
**A.** no significant difference

**Q.** Which “amount delivered to the olfactory bulb” value (in vivo) does the source give for “hypocretin-1 (QPLPDCCRQKTCSCRLYELLHGAGNHAAGILTL; Orexin-A; UniProt O43612 34-66, looked up)” here?
**A.** significantly increased

**Q.** What about the “amount in the trigeminal nerve” value (in vivo) of the same molecule?
**A.** decreased amount

**Q.** And the “amount of drug absorbed into the systemic circulation” value (in vivo)?
**A.** significantly decreased

**Q.** And the “decrease in whole brain concentrations” value (in vivo)?
**A.** about 50%

**Q.** With `NC(=O)CC[C@@H]1NC(=O)[C@H](Cc2ccccc2)NC(=O)[C@H](Cc2ccc(O)cc2)NC(=O)[C@@H](N)CSSC[C@@H](C(=O)N2CCC[C@H]2C(=O)N[C@@H](CCCN=C(N)N)C(=O)NCC(N)=O)NC(=O)[C@H](CC(N)=O)NC1=O` [arginine vasopressin] as the molecule, how does the “P3 component of event-related potentials” value ([7]; after intranasal administration) read?
**A.** significant increase

**Q.** And the “plasma concentrations after intravenous administration compared to intranasal use” value [7]?
**A.** higher

**Q.** What about the “P3 component of event-related potentials” value ([7]; intravenous administration, compared to placebo) of the same molecule?
**A.** did not show significant differences

**Q.** With `O=c1[nH]cc(F)c(=O)[nH]1` [5-FU] as the molecule, how does the “CSF levels with vs without pre-administration of acetazolamide” value ([1]; nasal delivery, rats) read?
**A.** significantly higher CSF levels

**Q.** And the “increased brain uptake compared to i.v.” value ([1]; solution i.n., rats pre-dosed with acetazolamide)?
**A.** 104%

**Q.** For `Nc1c2c(nc3ccccc13)CCCC2` [Tacrine], which “direct transport efficiency (DTE)” value ([3]; mouse, in vivo) is on record?
**A.** 207.23

**Q.** What does the source list for vasoactive intestinal peptide?
**A.** brain levels compared to solution given intranasally (in vivo): 5.6-7.7 fold; brain levels compared to unmodified nanoparticles (in vivo): higher brain levels

**Q.** With `Cc1nc2n(c(=O)c1CCN1CCC(c3noc4cc(F)ccc34)CC1)CCCC2O` (stereo not drawn) [Paliperidone] as the molecule, how does the “brain AUCs compared to intravenous administration of the microemulsion” value ([1]; intranasal mucoadhesive microemulsion, rats) read?
**A.** 2.43 times

**Q.** And the DTE ([1]; mucoadhesive microemulsion (polycarbophil) i.n., rats)?
**A.** 320.69%;

**Q.** And the DTE ([1]; mucoadhesive microemulsion (polycarbophil) i.n., rats, listed as paliperidone)?
**A.** 320.69%

**Q.** And the “DTE relative to nasal solution alone” value ([1]; rats)?
**A.** 1.74-fold

**Q.** And the “DTE relative to nasal solution alone” value ([1]; rats, listed as paliperidone)?
**A.** 1.74 fold

**Q.** With `C#CCN[C@@H]1CCc2ccccc21` [Rasagiline] as the molecule, how does the “brain uptake from gel formulations” value [8] read?
**A.** significantly higher brain uptake
